The values that follow come from US6352996B1, “Liposomal prodrugs comprising derivatives of camptothecin and methods of treating cancer using these prodrugs” (priority 1999, dated 2002).

Molecules are shown by their SMILES. Where two headings read alike, the source gives them in different places.

One data set relates to CLO breast carcinoma. Description: Human breast carcinoma CLO xenograft in nude mice. As to conditions: 8 mg/kg intramuscular twice a week, day 55 (FIG. 16). The data set is classed as in vivo. The source says:
Swiss nude mice of the NIH high fertility strain were bred and maintained pathogen-free in a laboratory. (Giovanella, B. C. and Stehlin, J. S. “Heterotransplantation of human malignant tumors in ‘nude’ thymusless mice. I. Breeding and maintenance of ‘nude’ mice.” J. Natl. Cancer Inst. 51: 615-619; 1973.)
Human malignant carcinomas of the colon, breast, lung, ovary, stomach, pancreas, bladder, prostate, osteosarcoma and malignant melanomas were heterotransplanted directly from patients into the nude mice and passaged serially. In particular, the tumors CLO, MUR, CAS, SW 48, SQU and BRO as described in Giovanella, B. C., Stehlin, J. S., Shepard, R. C. and Williams, L. J. “Correlation between response to chemotherapy of human tumors in patients and in nude mice.” Cancer 52: 1146-1152; 1983, tumor SCH as described in Heim, S., Mandahl, N., Arheden, K., Giovanella, B. C., Yim, S. O., Stehlin, J. S., Jr. and Mitebman, F. “Multiple karyotypic abnormalities including structural rearrangements of 11P in cell lines from malignant melanomas.” Cancer Genet. Cytogent, 35:5-20; 1988, and Verschraegen, C., Ciovanella, B. C., Mendoza, J. T., Kozielski, A. J. and Stehlin, J. S., Jr. “Specific organ metastases of human melanoma cells injected into the arterial circulation of nude mice.” Anticancer Res., In Press, and tumor PC-3 as described in Invest. Urol. 17, 16-23, 1979, were used. […]

Data set [1] in a line: Closed lactone form in plasma of mice after intrastomach administration. It counts as in vivo. As to conditions: after i.s. administration, mouse (FIG. 3).
In another data set the test system is human malignancies. Kind of data set: Clinical responses in Phase I clinical trial patients. It counts as in vivo. As to conditions: in humans.
Data set [2] concerns human tumor xenografts.
In data set [3] the test system is human tumor xenografts. Particulars: in mice; cited from earlier work.
A short description of data set [4]: Closed lactone form in human plasma after oral administration. As to conditions: for % present as closed lactone form in human blood/plasma: after oral administration (FIGS. 2, 4, 5, 7, 8).
Data set [5] can be described thus: Changes of body weights of mice during the test time period (toxicity). The data set is classed as in vivo. As to conditions: nude mice. The source says:
The preferred derivatives display significant antitumor activity with much lower toxicity than their parent camptothecin, CPT. The animal experimental data for these new derivatives were collected. Camptothecin 20(S) propioniate (where R1 is ethyl and R2 is H) is designated as Prodrug 2 and taken as a example to disclose some in vivo experimental data. FIG. 6 represents the antitumor activity of this compound in different doses against the implanted human breast carcinoma (CLO) in nude mice. The change of body weight of mice is recorded with the time.

The nature of data set [6]: Stability of lactone form in human plasma. The data set is classed as in vitro ADME. As to conditions: for Percent in plasma (lactone, percent of the initial lactone amount added): 1 μg/ml. The method, then:
CPT or SF6A lactone was added to human plasma (1 μg/ml) and an incubation and lactone determination were made as described in Example 15. The lactone amount at each time-point was detected after removing the carboxylate form, and subsequently was calculated as percent of the initial lactone amount added. The results shown in this Table below were derived from one of the three independent experiments performed using different incubation times. The pattern of quantitation of the lactones was similar in all three experiments.

Another data set relates to U-937 cells. Description: Growth inhibition of U-937 cells treated with CPT esters. It counts as cell-based. Particulars: 0.2 μM, 120 hr, percent of exponential growth of untreated cells (100%), mean of four estimates. The method, then: Growth inhibition of U-937 cells treated with various CPT esters.
Each identified compound was added to reach a culture of U-937 cell having a final concentration of 0.2 μM. The treatment time was for 120 hr. Growth inhibition in each of the treated cultures was then estimated as a percent of the exponential growth of the cells that was considered 100%. Each estimate was the mean value of four estimates.

The conditions of data set [7]: mouse liver homogenate, 2 μg SF6A/ml, 37° C.
Procedure: Determination of SF6A (Prodrug 2) and CPT in liver homogenate.
Mouse liver was homogenized in 4 volumes of ice-cold 0.15 M KCl with the aid of a Dounce homogenizer, then centrifuged at 15000 G for 10 min to remove particulate material. The supernatant, designated as liver homogenate, was transferred into a capped polypropylene tube, mixed with 2 μg SF6A/ml and incubated in a 37° C. water-bath. At the desired times, samples were removed and mixed with 4 volumes of ice-cold ethanol to precipitate proteins. The samples were stored at −20° C. until all were collected. Following centrifugation at 15000 G for 10 min, the clarified supernatants were subjected to analysis for determination of SF6A and CPT lactones by high pressure liquid chromatography (HPLC). The compounds were detected by fluorescence spectroscopy setting the excitation and emission wavelengths at 347 nm and 418 nm, respectively. CPT and SF6A have characteristic retention times of 3.5 min and 13.5 min, respectively.

Regarding `CCC1(OC(=O)C2OC2C)C(=O)OCc2c1cc1n(c2=O)Cc2cc3ccccc3nc2-1` (stereo not drawn) [Compound IC, Camptothecin 20-O-2′, 3′-epoxy-butyrate], the tumor size result in the data set on CLO breast carcinoma is “stabilize the tumor size after a certain amount of time”.
As for `CC[C@@]1(O)C(=O)OCc2c1cc1n(c2=O)Cc2cc3c([N+](=O)[O-])cccc3nc2-1` [Example 9NC, 9-nitrocamptothecin, reference compound], the “drug present in the plasma in the closed lactone form” value in [1] is on record as 57%. The results for the complete tumor regressions in the data set with human malignancies and in the data set on human tumor xenografts [2] (in mice) were 2/32 and 32/32, respectively. Also, the “potency relative to CPT against human tumor xenografts” value in the data set on human tumor xenografts [3] is 2-3 times. For the same compound, the “% present as closed lactone form in human blood/plasma” value in data set [4] is recorded as around 3%. Besides, in data set [4] (oral administration to Phase I clinical trial patients, on average (FIGS. 4 and 5)), the “drug present in plasma in the closed lactone form” value is around 3%.
On to `CCC(=O)O[C@]1(CC)C(=O)OCc2c1cc1n(c2=O)Cc2cc3ccccc3nc2-1` [Prodrug 2, Camptothecin 20-O-propionate], for which the Body weight in data set [5] (dose 5 mg/kg, day 21) is 21/33 gms; in data set [5] (dose 5 mg/kg, day 27), 27/33.7 gms; in [5] (dose 5 mg/kg, day 34), 34/34.3 gms; in data set [5] (dose 5 mg/kg, day 41), 41/33.5 gms; in [5] (dose 5 mg/kg, day 48), 48/32.9 gms; in data set [5] (dose 5 mg/kg, day 56), 56/33.2 gms. The Body weight in [5] (dose 6 mg/kg, day 21) is 21/32.9 gms; in data set [5] (dose 6 mg/kg, day 27) it was 27/33.4 gms; in [5] (dose 6 mg/kg, day 34) it was 34/33.8 gms; in data set [5] (dose 6 mg/kg, day 41), 41/33.5 gms; in data set [5] (dose 6 mg/kg, day 48), 48/34.0 gms; in [5] (dose 6 mg/kg, day 56) it was 56/32.2 gms. Besides, the Body weight in [5] (dose 7 mg/kg, day 21) is 21/30.8 gms; in data set [5] (dose 7 mg/kg, day 27) it was 27/31.7 gms; in [5] (dose 7 mg/kg, day 34), 34/30.6 gms; in data set [5] (dose 7 mg/kg, day 41), 41/31.1 gms; in [5] (dose 7 mg/kg, day 48), 48/31.6 gms; in [5] (dose 7 mg/kg, day 56), 56/31.5 gms. In addition, the Body weight was 21/32.9 gms in data set [5] (dose 8 mg/kg, day 21); 27/34.1 gms in data set [5] (dose 8 mg/kg, day 27); 34/34.0 gms in data set [5] (dose 8 mg/kg, day 34); 41/33.4 gms in [5] (dose 8 mg/kg, day 41); 48/33.9 gms in data set [5] (dose 8 mg/kg, day 48); 56/33.2 gms in data set [5] (dose 8 mg/kg, day 56). For the same compound, the “change of body weight of mice during the test time period” value in data set [5] (doses 5-8 mg/kg) was “no losses of mice body weights”. For the same compound, the “Lactone % in Human Plasma” value in [6] (Time 0 Hr) was determined as 100%; in [6] (Time 1 Hr) it was 86%; in data set [6] (Time 2 Hr), 77%; in [6] (Time 4 Hr), 68%; in data set [6] (Time 6 Hr) it was 56%. In data set [6] (human plasma), the “time the lactone ring remained intact, versus CPT” value was “much longer”. Further, the “Percent in plasma (lactone, percent of the initial lactone amount added)” value in data set [6] (human plasma, incubation time 0.0 hr) amounted to 100.0%; in data set [6] (human plasma, incubation time 1.0 hr), 86.0%; in data set [6] (human plasma, incubation time 2.0 hr) it was 77.0%; in [6] (human plasma, incubation time 4.0 hr) it was 68.0%; in [6] (human plasma, incubation time 6.0 hr), 56.0%; in data set [6] (human plasma, incubation time 27.0 hr), 9.0%. Moreover, in the data set on U-937 cells, the Growth % is listed as 31 ± 2%. The “Amount determined: CPT (formed from SF6A)” value came out at 0.00 µg/mL in data set [7] (incubation 0 min); 0.00 µg/mL in data set [7] (incubation 10 min); 0.00 µg/mL in data set [7] (incubation 60 min); 0.00 µg/mL in data set [7] (incubation 6 hr); 0.47 µg/mL in data set [7] (incubation 24 hr); 0.30 µg/mL in data set [7] (incubation 48 hr). Also, the “Amount determined: SF6A” value in data set [7] (incubation 0 min) amounted to 1.95 µg/mL; in [7] (incubation 10 min) it was 2.06 µg/mL; in data set [7] (incubation 60 min), 2.05 µg/mL; in data set [7] (incubation 6 hr), 2.05 µg/mL; in [7] (incubation 24 hr) it was 0.96 µg/mL; in [7] (incubation 48 hr) it was 0.90 µg/mL. The toxicity entry in the data set with human tumor xenografts [2] (mice) was “exceptional lack of toxicity, even at enormous doses in mice”. Also, the “antitumor activity against xenografts of human tumors” value in the data set on human tumor xenografts [2] (nude mice) is on record as “exhibits antitumor activity against human tumor xenografts”. Further, in [4], the “% present as closed lactone form in human blood/plasma” value stood at 2.8%. Besides, in [4] (human, oral administration, versus CPT or 9NC), the “increase of lactone share over the parent compound” value is listed as “sevenfold”.
On to `CC[C@@]1(OC(C)=O)C(=O)OCc2c1cc1n(c2=O)Cc2cc3ccccc3nc2-1` [CPT-acetate], for which the Growth % with U-937 cells is 92 ± 4%.
Consider `CC=CC(=O)OC1(CC)C(=O)OCc2c1cc1n(c2=O)Cc2cc3ccccc3nc2-1` (stereo not drawn) [Compound IB, Camptothecin 20-O crotonate], for which the tumor size entry with CLO breast carcinoma is given as “actually reducing the tumor size”.
